Assay results published in patent publication US11459325B2, “Heterocyclic compound” (Takeda Pharmaceutical Company Limited, priority 2018, dated 2022).

Test system: GBA mutant human fibroblasts GM008760
Test: Glucosylceramide lowering assay
Type: cell-based
Settings: Homo sapiens, Fibroblast, 96 h; 10 μM test compound, 4 days culture; GlcCer (C16:0)/Cer (C16:0) molar ratio of test compound group relative to DMSO control group x100; smaller value = glucosylceramide lowering
In short: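 Fibroblasts with mutant GBA were treated with 10 μM compound for 4 days. Lipids extracted in ethanol/isopropanol with deuterated internal standard; GlcCer (C16:0) and Cer (C16:0) quantified by RapidFire-MS/MS. Value is GlcCer/Cer ratio relative to DMSO control ×100.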

Structure (SMILES) | activity at 10 µM [%]
CCCCO[C@H]1CC[C@H](NC(=O)c2cnn3c(C)cn(-c4ccccc4OCC(F)(F)F)c(=O)c23)CC1 [Example 339, N-[trans-4-butoxycyclohexyl]-7-methyl-4-oxo-5-[2-(2,2,2-trifluoroethoxy)phenyl]-4,5-dihydropyrazolo[1,5-a]pyrazine-3-carboxamide] | 30
Cc1cn(-c2ccccc2OCC(F)(F)F)c(=O)c2c(C(=O)Nc3ccc(C(C)(C)O)cc3)cnn12 [Example 340, N-[4-(2-hydroxypropan-2-yl)phenyl]-7-methyl-4-oxo-5-[2-(2,2,2-trifluoroethoxy)phenyl]-4,5-dihydropyrazolo[1,5-a]pyrazine-3-carboxamide] | 33
Cc1cn(-c2ccccc2OCC(F)(F)F)c(=O)c2c(C(=O)Nc3ccc(C4CC4)nc3)cnn12 [Example 341, N-(6-cyclopropylpyridin-3-yl)-7-methyl-4-oxo-5-[2-(2,2,2-trifluoroethoxy)phenyl]-4,5-dihydropyrazolo[1,5-a]pyrazine-3-carboxamide] | 32
Cc1cn(-c2ccccc2OCC(F)(F)F)c(=O)c2c(C(=O)Nc3ccc(C#N)nc3)cnn12 [Example 342, N-(6-cyanopyridin-3-yl)-7-methyl-4-oxo-5-[2-(2,2,2-trifluoroethoxy)phenyl]-4,5-dihydropyrazolo[1,5-a]pyrazine-3-carboxamide] | 28
Cc1cn(-c2ccccc2OCC(F)(F)F)c(=O)c2c(C(=O)Nc3ccc(C#N)cn3)cnn12 [Example 343, N-(5-cyanopyridin-2-yl)-7-methyl-4-oxo-5-[2-(2,2,2-trifluoroethoxy)phenyl]-4,5-dihydropyrazolo[1,5-a]pyrazine-3-carboxamide] | 23
Cc1cn(C)c(=O)n2c(C(=O)NC(C)(C)c3ccc(Cl)cc3)cnc12 [Example 347, N-[2-(4-chlorophenyl)propan-2-yl]-6,8-dimethyl-5-oxo-5,6-dihydroimidazo[1,2-c]pyrimidine-3-carboxamide] | 44
COc1ccccc1-n1cc(C)c2ncc(C(=O)Nc3ccc(N4CCOCC4)cc3)n2c1=O [Example 350, 6-(2-methoxyphenyl)-8-methyl-N-[4-(morpholin-4-yl)phenyl]-5-oxo-5,6-dihydroimidazo[1,2-c]pyrimidine-3-carboxamide] | 54
